Read-outs that look alike come from different tables or passages of the source.
Assays:
Caco-2 cells = test: Cytotoxicity, neutral red uptake assay; assay type: cell-based, human; settings: Caco-2, neutral red uptake assay, up to 100 μM, 24 h
Method: To determine the cytotoxicity of allyl HTT and 4-MSOB HTT, HepG2 and Caco-2 cells were seeded in a 96-well TC-plate (standard F, sterile, from Sarsted, Nümbrecht, Germany) using a seeding density of 20,000 cells/well. After 24 h, the medium was exchanged to 200 μL pure medium or 200 μL medium containing allyl HTT or 4-MSOB HTT with concentrations in the range of 0.1–100 μM. The cells were treated for 24 h under cell culture conditions (prepared for three biological replicates, every 3 technical replicates). Cell viability was determined using the MTT assay and the neutral red uptake assay based on Schröter et al. ([27]). In the case of MTT assay, after 24 h of HTT treatment, 20 μL of MTT solution (75 mg MTT in 15 mL PBS) were added, and cells were incubated for 60 min under cell culture conditions. Afterward, the supernatant was removed and 100 μL of lysis buffer (5% formic acid in isopropanol) was added and the plate was shaken for 10 min at 300 rpm before measuring the absorption at 550 ± 5 nm (reference 690 ± 5 nm) by a Tecan i-control Infinite M200 PRO plate reader (Crailsheim, Germany). In the case of the neutral red uptake assay, the supernatant was removed after 24 h HTT treatment, and 100 μL neutral red solution (40 mg neutral red in 10 mL PBS, freshly diluted 1:100 with medium and incubated for 24 h under cell culture conditions) was added. After incubation of neutral red solution for 2 h under cell culture conditions, the supernatant was removed, and cells were washed with 150 μL of PBS. After removing PBS, 150 μL desorb solution (49.5% water/49.5% ethanol/1% acetic acid) was added and the plate was shaken for 10 min at 300 rpm before measuring the absorption at 540 ± 5 nm by Tecan i-control Infinite M200 PRO plate reader. The mean ± SD is used for presenting the results of three technical replicates for each data point of the three biological replicates.

[1] = design: method as in PMID 35761548; settings: recently calculated; cited from earlier work
[2] = biological target: T1, glycogen synthase kinases-3α (Homo sapiens, UniProt P49840); test: GSK-3 inhibition, Z'-LYTE kinase assay; assay type: biochemical
T1 construct: purchased Life Technologies/Thermo Fisher Scientific, SelectScreen Services (Madison, WI, USA)
T1 sequence (P49840 whole entry): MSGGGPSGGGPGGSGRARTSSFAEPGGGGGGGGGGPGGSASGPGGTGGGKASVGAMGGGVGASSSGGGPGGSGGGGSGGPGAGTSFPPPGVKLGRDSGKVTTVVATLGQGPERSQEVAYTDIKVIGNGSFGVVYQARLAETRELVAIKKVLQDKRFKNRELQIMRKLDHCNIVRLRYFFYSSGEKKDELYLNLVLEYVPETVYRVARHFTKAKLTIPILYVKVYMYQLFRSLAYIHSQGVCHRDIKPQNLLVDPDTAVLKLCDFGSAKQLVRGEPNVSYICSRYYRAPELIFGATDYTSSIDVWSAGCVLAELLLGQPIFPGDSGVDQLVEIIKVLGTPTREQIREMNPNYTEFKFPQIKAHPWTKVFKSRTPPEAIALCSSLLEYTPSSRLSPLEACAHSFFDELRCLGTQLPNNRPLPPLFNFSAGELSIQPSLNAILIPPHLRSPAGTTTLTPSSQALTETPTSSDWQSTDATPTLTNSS
Method: (§1) The determination of the inhibition of glycogen synthase kinases-3α and -3β by allyl HTT and 4-MSOB HTT was performed via contract research with Life Technologies/Thermo Fisher Scientific by sending the compounds dissolved in 100% DMSO to SelectScreen Services (Madison, WI, USA). The tested concentrations in the Z'-LYTE assay were up to 100 μM and standards were prepared as duplicates. The Z'-LYTE kinase assay is a fluorescence-based assay using a coupled-enzyme format and the different sensitivity of phosphorylated and non-phosphorylated peptides regarding their fluorescence. The data are shown as mean ± SD. Due to the impression of significant bioactivity, further comparisons were performed. […] Stars report different significance levels: ^*p ≤ 0.05, ^**p ≤ 0.01, and ^***p ≤ 0.001.

HepG2 cells = test: Uptake into HepG2 cells (supernatant before and after cell lysis, LC-MS/MS); assay type: in vitro ADME, human; settings: for Amount of analyte in supernatant after cell lysis / Amount of analyte in supernatant before cell lysis / Increase due to cell lysis: HepG2, 100 μM, 24 h
Method: Cells originated from a human liver cancer cell line (HepG2) were grown in RPMI-1640 medium + 10% FBS + 1% penicillin/streptomycin under cell culture conditions (37°C and 5% CO2 atmosphere) in T-75 flasks (Sarsted, Nümbrecht, Germany) until a confluence of approximately 50%. This medium and growing conditions were used for all experiments with HepG2 cells in this study. The medium was exchanged by fresh medium for control samples, or by fresh medium containing a concentration of 100 μM allyl HTT or 4-MSOB HTT. Afterward, the cells were incubated for an additional 24 h (each prepared for three cell passages). In the case of cell experiments, all allyl HTT or 4-MSOB HTT spiked media were sterile filtered using Filtropur S 0.2 sterile from Sarstedt AG & Co (Nümbrecht, Germany). After treatment, the medium of HepG2 cells (~80% confluence) was removed and cells were washed three times with 6 mL of PBS. In a second approach performed only for 4-MSOB HTT, treated cells were washed 6 times with 6 mL of PBS. The higher number of washing steps in the case of 4-MSOB HTT was chosen to remove the analyte residues from the former treatment medium more effectively. This enabled to detect a significant increase in analyte amount due to cell lysis when comparing the analyte amount in the supernatant before and after cell lysis, as only three washing steps for allyl HTT and control were not sufficient to detect a significant difference in 4-MSOB HTT amounts due to cell lysis treatment. Afterward, cells were detached from the surface by incubation with 1.5 mL trypsin/EDTA (1 x) for 5 min at 37°C. The cell suspension was transferred into a 2-mL micro reaction vessel and centrifuged for 2 min at 560 g. Then, the cell pellet was washed carefully twice with 1.5 mL of pure water to remove further residues of the analyte spiked medium and to reduce the salt concentration in the samples for LC-MS/MS measurements. For cell lysis, the micro reaction vessels with cell pellet and approximately 60 μL supernatant were sonicated for 15 min in an ultrasonic bath, followed by the addition of 40 μL of MeCN and an additional sonication step for 15 min. Afterward, the cell suspension was centrifuged for 3 min at 4,000 g, and the supernatant, as well as the supernatant before cell lysis, were analyzed by LC-MS/MS. A standard addition method was used, with added amounts of 3 pmol of allyl HTT and 1.2 pmol of 4-MSOB HTT. The mass spectrometry parameters were like QTRAP method 1 (see Section Uptake and Excretion of 4-Hydroxythiazolidine-2-Thiones From a Red Cabbage Meal – A Human Self-Experiment) with an injection volume of 10 μL. The used HPLC method 3 was a gradient of A = water and B = MeCN with 0 to 5 min 2% B, an increase to 14 min up to 98% B, holding for 5 min followed by a decrease to 2% B at 20 min and re-equilibration with 2% B for 4 min, using a flow rate of 300 μL/min, Agilent Zorbax Eclipse Plus C8 column (see Section Stability of 4-Hydroxythiazolidine-2-Thiones in a Stomach Model) and a column oven temperature of 35°C. The given results are the mean of the three biological replicates ± SD. […] The significance of the difference in analyte amount before and after cell lysis was determined by t-test for independent samples per variable using the STATISTICA version 13.5 software (StatSoft, Hamburg, Germany) with a significance level of p ≤ 0.05.

[3] = biological target: T2, glycogen synthase kinases-3β (Homo sapiens, UniProt P49841); test: GSK-3 inhibition, Z'-LYTE kinase assay; assay type: biochemical
T2 construct: purchased Life Technologies/Thermo Fisher Scientific, SelectScreen Services (Madison, WI, USA)
T2 sequence (P49841 whole entry): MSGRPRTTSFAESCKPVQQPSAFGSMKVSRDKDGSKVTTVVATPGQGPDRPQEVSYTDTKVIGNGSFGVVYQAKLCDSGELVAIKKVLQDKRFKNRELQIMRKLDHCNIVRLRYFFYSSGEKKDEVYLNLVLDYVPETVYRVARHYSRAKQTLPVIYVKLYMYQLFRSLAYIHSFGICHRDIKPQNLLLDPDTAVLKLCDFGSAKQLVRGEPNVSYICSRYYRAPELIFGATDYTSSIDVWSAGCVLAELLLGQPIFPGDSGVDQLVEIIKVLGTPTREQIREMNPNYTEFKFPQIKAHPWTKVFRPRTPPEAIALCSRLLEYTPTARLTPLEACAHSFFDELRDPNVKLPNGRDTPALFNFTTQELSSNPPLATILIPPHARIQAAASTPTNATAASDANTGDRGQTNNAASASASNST
Method: as §1

[4] = inverse exposure: spiked in the lower compartment, 2 min
[5] = inverse exposure: spiked in the lower compartment, 1 h
[6] = inverse exposure: spiked in the lower compartment, 2 h
[7] = inverse exposure: spiked in the lower compartment, 24 h
[8] = spiked in the upper compartment, 2 min
[9] = spiked in the upper compartment, 1 h
[10] = spiked in the upper compartment, 2 h
[11] = spiked in the upper compartment, 24 h

| SMILES | effect on cell viability compared to untreated cells (Caco-2 cells) | calculated log P (partition coefficient in octanol/water) [1] | inhibition at 100 µM [2] [%] | Amount of analyte in supernatant after cell lysis (HepG2 cells; 3 washing steps) | Amount of analyte in supernatant before cell lysis (HepG2 cells; 3 washing steps) [fmol] | Increase due to cell lysis (HepG2 cells; 3 washing steps) [fmol] | Amount of analyte in supernatant after cell lysis (HepG2 cells; 6 washing steps) [fmol] | Amount of analyte in supernatant before cell lysis (HepG2 cells; 6 washing steps) [fmol] | Increase due to cell lysis (HepG2 cells; 6 washing steps) [fmol] | Concentration ratio of compartment non-spiked vs. spiked (Caco-2 cell layer; [4]) [%] | Concentration ratio of compartment non-spiked vs. spiked (Caco-2 cell layer; [5]) [%] | Concentration ratio of compartment non-spiked vs. spiked (Caco-2 cell layer; [6]) [%] | Concentration ratio of compartment non-spiked vs. spiked (Caco-2 cell layer; [7]) [%] | Concentration ratio of compartment non-spiked vs. spiked (Caco-2 cell layer; [8]) [%] | Concentration ratio of compartment non-spiked vs. spiked (Caco-2 cell layer; [9]) [%] | Concentration ratio of compartment non-spiked vs. spiked (Caco-2 cell layer; [10]) [%] | Concentration ratio of compartment non-spiked vs. spiked (Caco-2 cell layer; [11]) [%] | inhibition at 100 µM [3] [%] | measured ratio for the higher uptake of allyl HTT compared to 4-MSOB HTT (HepG2 cells; HepG2 cells) [fold] | measured ratio for the higher uptake of allyl HTT compared to 4-MSOB HTT (Caco-2 cell layer; human, Caco-2, 100 μM) [fold] |
| --- | --- | --- | --- | --- | --- | --- | --- | --- | --- | --- | --- | --- | --- | --- | --- | --- | --- | --- | --- | --- |
| C[S+]([O-])CCCCN1C(=S)SCC1O (stereo not drawn) [4-MSOB HTT, 4-hydroxy-3-(4-(methylsulfinyl)butyl)thiazolidine-2-thione] | did not show any effect on cell viability | −1.12 | ~29 | 810 ± 140 fmol | 760 ± 190 | 56 ± 55 | 21 ± 5 | 1.7 ± 0.3 | 20 ± 5 | 0 | 5 | 11 | 99 | 0 | 1 | 3 | 54 | – | – | – |
| C=CCN1C(=S)SCC1O (stereo not drawn) [allyl HTT, 3-allyl-4-hydroxythiazolidine-2-thione] | did not show any effect on cell viability | 0.47 | – | 1,060 ± 140 fmol | 520 ± 170 | 540 ± 160 | – | – | – | 0 | 39 | 64 | 102 | 1 | 17 | 42 | 96 | ~20 | 27 | 10 |

From PMC9354954, “Assessing Bioavailability and Bioactivity of 4-Hydroxythiazolidine-2-Thiones, Newly Discovered Glucosinolate Degradation Products Formed During Domestic Boiling of Cabbage” (Frontiers in Nutrition, 2022)
